These results are taken from ChEMBL document CHEMBL1201862, “PubChem BioAssay data set” (2004).

Some test systems named below: COLO 205; EKVX; HCT-116; HCT-15; HL-60; HOP-62; HOP-92; Hs-578T; K562; MDA-MB-435; NCI-H226; NCI-H23; PC-3; SK-MEL-28; SK-MEL-5; SK-OV-3; SNB-75; T47D; UACC-257; DMS-273.
Assay in all cases: DTP human tumour cell line panel, 48 h

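Growth conditions: 96-well plates. Treatment: test compound, 48 hours, 5 concentrations. Analysis: linear interpolation between bracketing concentrations; unreached endpoints set to highest concentration. GI50 marks 50% less growth.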 Activity calls are given as the source filed them. Rule as the data show it: active = GI50 up to about 1.1 µM and inactive = higher.

The term GI50 denotes the concentration giving 50% growth inhibition.

In the case of `O=S(=O)(CC(O)C(Cl)(Cl)Cl)NNc1ccccc1` (stereo not drawn), the GI50 in the test on COLO 205 is 75 µM (inactive); with EKVX it was > 100 µM (inactive); in the test with HCT-116, > 100 µM (inactive); with HCT-15, 72.1 µM; with HL-60, 47.6 µM (inactive); in the test with HOP-62, > 100 µM (inactive). In addition, the GI50 was > 100 µM (inactive) in the test with HOP-92; > 100 µM (inactive) in the test with Hs-578T; 23 µM (inactive) in the test on K562; > 100 µM (inactive) in the test on MDA-MB-435; > 100 µM (inactive) in the test with NCI-H226; > 100 µM (inactive) in the test with NCI-H23. Also, the GI50 with PC-3 was > 100 µM (inactive); with SK-MEL-28, > 100 µM (inactive); in the test with SK-MEL-5, 74.1 µM (inactive); with SK-OV-3, > 100 µM (inactive); in the test on SNB-75 it was > 100 µM (inactive); in the test on T47D, 81.5 µM (inactive). In the test with UACC-257, the GI50 was > 100 µM (inactive).
Consider `CC(C)(CN1CCCCC1)C(=O)/C=C/c1ccccc1`, for which the GI50 is 16.4 µM (inactive) in the test with COLO 205; 13.5 µM (inactive) in the test on DMS-273; 7.13 µM (inactive) in the test with EKVX; 15.3 µM (inactive) in the test on HCT-116; 13.1 µM in the test with HCT-15; 24.7 µM (inactive) in the test on HOP-62. The GI50 with K562 was 3.4 µM (inactive); in the test with NCI-H226, 29 µM (inactive); in the test on NCI-H23 it was 15.1 µM (inactive); in the test with SK-MEL-28, 15.6 µM (inactive); in the test with SK-MEL-5, 11.9 µM (inactive); in the test on SK-OV-3, 21.3 µM (inactive). The GI50 in the test on SNB-75 is 11.6 µM (inactive); in the test with UACC-257, 14.5 µM (inactive).
Regarding `CC(C)=CCC/C(C)=C/CC/C(C)=C/CCN(C)CCO`, the GI50 in the test with COLO 205 is 1.72 µM (inactive); in the test on EKVX, 16.8 µM (inactive); in the test on HCT-116, 4.12 µM (inactive); with HCT-15, 3.95 µM; in the test on HL-60, 1.95 µM (inactive); in the test with HOP-62, 6.78 µM (inactive). For the same molecule, the GI50 was 3.32 µM (inactive) in the test with HOP-92; 1.88 µM (inactive) in the test with Hs-578T; 1.54 µM (inactive) in the test on K562; 4.44 µM (inactive) in the test on MDA-MB-435; 14.9 µM (inactive) in the test with NCI-H226; 11.6 µM (inactive) in the test on NCI-H23. Besides, the GI50 in the test on PC-3 is 6.47 µM (inactive); in the test with SK-MEL-28 it was 8.45 µM (inactive); in the test with SK-MEL-5, 1.89 µM (inactive); in the test with SK-OV-3, 15.1 µM (inactive); in the test with SNB-75, 7.43 µM (inactive); in the test on T47D it was 2.78 µM (inactive). Moreover, in the test with UACC-257, the GI50 is 8.24 µM (inactive).
On to `OCC1=CC(NC2CC(CO)C(O)C(O)C2O)C(O)C(O)C1O` (stereo not drawn), for which the GI50 is > 100 µM (inactive) in the test on COLO 205; > 100 µM (inactive) with DMS-273; > 100 µM (inactive) in the test on EKVX; > 100 µM (inactive) in the test with HCT-116; above 100 µM with HCT-15; > 100 µM (inactive) in the test with HOP-62. In addition, the GI50 in the test with K562 was > 100 µM (inactive); in the test on NCI-H226, 94.4 µM (inactive); in the test with NCI-H23 it was > 100 µM (inactive); with SK-MEL-28, > 100 µM (inactive); in the test with SK-OV-3, > 100 µM (inactive); in the test on SNB-75, > 100 µM (inactive). Besides, the GI50 in the test on UACC-257 was > 100 µM (inactive).
As for `OCCO[P+]1(OCCO)n2c3ccc2C(c2ccccc2)=C2C=CC(=N2)C(c2ccccc2)=c2ccc(n21)=C(c1ccccc1)C1=NC(=C3c2ccccc2)C=C1`, the GI50 was 0.013 µM (active) in the test on COLO 205; 0.104 µM (active) with EKVX; 0.0218 µM (active) in the test on HCT-116; 1.16 µM in the test on HCT-15; 0.0152 µM (active) with HL-60; 0.0708 µM (active) with HOP-62. The GI50 with HOP-92 was 0.0382 µM (active); in the test on Hs-578T it was 0.0237 µM (active); in the test on K562 it was 0.0109 µM (active); in the test on MDA-MB-435 it was 0.0296 µM (active); with NCI-H226, 0.0579 µM (active); in the test with NCI-H23, 0.0327 µM (active). In addition, the GI50 is 0.0299 µM (active) in the test with PC-3; 0.0408 µM (active) in the test on SK-MEL-28; 0.0296 µM (active) with SK-MEL-5; 0.0561 µM (active) with SK-OV-3; < 0.0144 µM (active) in the test with SNB-75; 0.0251 µM (active) in the test with T47D. In the test with UACC-257, the GI50 was 0.0207 µM (active).
As for `CCOC(=O)c1c2c(n3ccccc13)C(=O)c1ccccc1C2=O`, the GI50 was 26.5 µM (inactive) in the test with COLO 205; > 100 µM (inactive) in the test on EKVX; > 100 µM (inactive) with HCT-116; 11.1 µM in the test on HCT-15; > 100 µM (inactive) in the test with HL-60; 97.9 µM (inactive) in the test with HOP-62. The GI50 with HOP-92 is 44.8 µM (inactive); in the test on Hs-578T, 19.7 µM (inactive); with K562, > 100 µM (inactive); in the test on MDA-MB-435, > 100 µM (inactive); in the test with NCI-H226 it was > 100 µM (inactive); with NCI-H23, 42.2 µM (inactive). For the same molecule, the GI50 was > 100 µM (inactive) in the test on PC-3; > 100 µM (inactive) with SK-MEL-28; 10.7 µM (inactive) in the test with SK-MEL-5; > 100 µM (inactive) in the test on SK-OV-3; 19.5 µM (inactive) in the test with SNB-75; > 100 µM (inactive) with T47D. For the same molecule, the GI50 in the test on UACC-257 is > 100 µM (inactive).
